# According to patent US4875922A, “Pyrimidine derivatives” (Imperial Chemical Industries PLC, priority 1986, dated 1989):
# How the values were obtained:
# Barley = experiment: Whole plant screen for plant growth regulator activity, barley (BR); assay type: in vivo, Barley (Atem); details: BR, 4000 ppm (4 kg/ha), visual score after 2-6 weeks
# How it was run: (§1)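 Visual assessment of morphological characteristics, 2-6 weeks after treatment, relative to formulation-blank controls. Plants had received a 4000 ppm tracksprayer application (4 kg/ha at 1000 l/ha) and were grown under supplementary lighting giving 16 h days, with the temperate cereals wheat and barley cooler (16/13° C.) than maize and rice (25/22° C.).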
# Wheat = experiment: Whole plant screen for plant growth regulator activity, wheat (WW); assay type: in vivo, Wheat (Timmo); details: WW, 4000 ppm (4 kg/ha), visual score after 2-6 weeks
# How it was run: as §1
# Rice [1] = experiment: Whole plant screen for plant growth regulator activity, rice (RC); assay type: in vivo, Rice (Ishikari); details: 4000 ppm (4 kg/ha), visual score after 2-6 weeks
# How it was run: as §1
# Maize = experiment: Whole plant screen for plant growth regulator activity, maize (MZ); assay type: in vivo, Maize (Earliking); details: 4000 ppm (4 kg/ha), visual score after 2-6 weeks
# How it was run: as §1
# Apple = experiment: Whole plant screen for plant growth regulator activity, apple (AP); assay type: in vivo, Apple (Red Delicious); details: 4000 ppm (4 kg/ha), visual score after 2-6 weeks
# How it was run: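 Visual scoring of morphological effects after 2-6 weeks in glasshouse, compared with formulation-blank controls. Spray application was 4000 ppm, equal to 4 kg/ha at 1000 l/ha field volume, at set leaf stages. Growth at 25° C./22° C. day/night with 16 hour photoperiod; temperate cereals wheat and barley at 16° C./13° C.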
# Tomato = experiment: Whole plant screen for plant growth regulator activity, tomato (TO); assay type: in vivo, Tomato (Ailsa Craig); details: 4000 ppm (4 kg/ha), visual score after 2-6 weeks
# How it was run: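 Tomato (Ailsa Craig), one plant per 3-inch peat pot, sprayed at 2–2½ leaves with 4000 ppm (4 kg/ha in 1000 l/ha) by track sprayer. Glasshouse 25 °C day/22 °C night, 16 h photoperiod; morphology visually scored after 2–6 weeks against formulation blanks.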
# Rice [2] = experiment: Intermediate Retardant Test, rice; assay type: in vivo, Rice (Ishikari); details: Oryza sativa, 672 h, overall spray, approximately 28 days, Table VI, read-out: Percentage Reduction in Height of Rice (Compared to formulation blank)
# How it was run: (§2)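 Overall spray at 500 and 2000 ppm (0.5 and 2 kg/ha^-1 at 1000 l/ha^-1); for apples, a 2000 ppm foliar-only spray was also compared with a 2000 ppm root drench. Rice grew in flooded 4" paddy pots, barley and apples in 4" pots. About 28 days after treatment, height (to top-most ligule, or to apex for apples) was recorded as % reduction versus formulation blank.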
# Spring Barley = experiment: Intermediate Retardant Test, spring barley; assay type: in vivo, Spring Barley (Atem/kym); details: Hordeum vulgare, 672 h, overall spray, approximately 28 days, Table VII, read-out: Percentage Reduction in Height of Spring Barley (Compared to formulation blank)
# How it was run: as §2
# Apples = experiment: Intermediate Retardant Test, apples, foliar spray compared with root drench; assay type: in vivo, Apples (Red Delicious); details: 672 h, approximately 28 days, Table IX, read-out: Percentage Reduction in Height of Apples (Compared to formulation blank)
# How it was run: as §2
# Erysiphe graminis = experiment: Foliar fungal disease control, Erysiphe graminis (barley); assay type: in vivo; details: 100 ppm spray plus root drench (approximately 40 ppm a.i/dry soil); inoculated 24 hours before treatment
# Venturia inaequalis = experiment: Foliar fungal disease control, Venturia inaequalis (apple); assay type: in vivo; details: 100 ppm spray plus root drench (approximately 40 ppm a.i/dry soil), one or two days before inoculation
# Pyricularia oryzae = assay type: in vivo; details: 100 ppm spray plus root drench (approximately 40 ppm a.i/dry soil), one or two days before inoculation
# Cercospora arachidicola = experiment: Foliar fungal disease control, Cercospora arachidicola (peanut); assay type: in vivo; details: 100 ppm spray plus root drench (approximately 40 ppm a.i/dry soil), one or two days before inoculation
# Plasmopara viticola = experiment: Foliar fungal disease control, Plasmopara viticola (vine); assay type: in vivo; details: 100 ppm spray plus root drench (approximately 40 ppm a.i/dry soil), one or two days before inoculation
# Puccinia recondita = experiment: Foliar fungal disease control, Puccinia recondita (wheat); assay type: in vivo; details: 100 ppm spray plus root drench (approximately 40 ppm a.i/dry soil), one or two days before inoculation
# Phytophthora infestans = assay type: in vivo; details: 100 ppm spray plus root drench (approximately 40 ppm a.i/dry soil), one or two days before inoculation
smiles,measurement,setting,value
CC(C)CC#CC(O)(c1cncnc1)C(C)(C)C (stereo not shown) [Compound 16],G = Greening effect,Barley,2 (31-60%)
same,I = Interligular or internodal length reduction,Barley,2 (31-60%)
same,R = Retardation,Barley,3 (61-100%)
same,G = Greening effect,Wheat,2 (31-60%)
same,I = Interligular or internodal length reduction,Wheat,3 (61-100%)
same,R = Retardation,Wheat,3 (61-100%)
same,T = Tillering or side shooting,Wheat; * = decrease in tillering,3 (61-100%)
same,G = Greening effect,Rice [1],2 (31-60%)
same,I = Interligular or internodal length reduction,Rice [1],3 (61-100%)
same,R = Retardation,Rice [1],3 (61-100%)
same,T = Tillering or side shooting,Rice [1]; * = decrease in tillering,1 (10-30%)
same,G = Greening effect,Maize,2 (31-60%)
same,I = Interligular or internodal length reduction,Maize,3 (61-100%)
same,R = Retardation,Maize,3 (61-100%)
same,T = Tillering or side shooting,Maize; * = decrease in tillering,1 (10-30%)
same,G = Greening effect,Apple,3 (61-100%)
same,I = Interligular or internodal length reduction,Apple,3 (61-100%)
same,R = Retardation,Apple,3 (61-100%)
same,G = Greening effect,Tomato,2 (31-60%)
same,I = Interligular or internodal length reduction,Tomato,3 (61-100%)
same,R = Retardation,Tomato,3 (61-100%)
same,Percent reduction in rice height vs formulation blank at 500 ppm,Rice [2]; 500 ppm,59%
same,Percent reduction in rice height vs formulation blank at 2000 ppm,Rice [2]; 2000 ppm,65%
same,percent reduction in plant height at 500 ppm,Spring Barley; 500 ppm,66%
same,percent reduction in plant height at 2000 ppm,Spring Barley; 2000 ppm,88%
same,percent reduction in plant height at 2000 ppm,Apples; 2000 ppm (Foliar),6%
same,percent reduction in plant height at 2000 µg/mL,"Apples; soil, 2000 pmm (Root), root drench",47%
same,"disease control, ERYSIPHE GRAMINIS (BARLEY)",Erysiphe graminis,4
same,"disease control, VENTURIA INAEQUALIS (APPLE)",Venturia inaequalis,4
same,"disease control, P[…] (RICE)",Pyricularia oryzae,3 (trace - 5% of disease on untreated plants)
same,"disease control, CERCOSPORA ARACHIDICOLA (PEANUT)",Cercospora arachidicola,4
same,"disease control, PLASMOPARA VITICOLA (VINE)",Plasmopara viticola,0 (60-100% of disease on untreated plants)
same,"disease control, PUCCINIA RECONDITA (WHEAT)",Puccinia recondita,3 (trace - 5% of disease on untreated plants)
same,"disease control, PH[…] (TOMATO)",Phytophthora infestans,0 (60-100% of disease on untreated plants)
